Reference: US10889611B2, “Sialyltransferase inhibitors and uses thereof” (Academia Sinica, priority 2015, dated 2021)

Experiments:
[1] = test system: primary melanoma cells (B16-F10/Luc cells); test: Primary melanoma-bearing C57BL mice; type: in vivo
Experimental: (§1) Six C57BL mice (3-6 weeks old) were subcutaneously or intravenously injected with 5×10^5 primary melanoma cells (i.e., B16-F10/Luc cells) on day 0 and allowed the tumor to grow for 7 days to create primary or metastatic melanoma model. Then, the test compound (e.g., FCW393, 10 mg/Kg, i.p.) was administered by intraperitoneal injection at the interval of 3 times per week, until day 26 in each animal model. Tumor sizes were measured using calipers at designated days, and tumor volume was calculated using the formula: volume=width^2×length×0.52. The average body weight (BW) of the animals was measured daily, and the concentration of the test compound(s) (i.e., FCW393) in i.p. injection was adjusted proportionally to the BW respectively at the indicated dosage and time. After treatment, mice were sacrified and their white blood cells (WBC), red blood cells (RBC), platelets (PLT), hemoglobin (HGB), hematocrit (HCT), mean corpuscular volume (MCV), mean corpuscular hemoglobin (MCH), and mean corpuscular hemoglobin concentration (MCHC) were respectively determined; their weights of lymph nodes, thymus, and spleen were measured; as well as the levels of aspartate aminotransferase (AST), analine aminotransferase (ALT), albumin, triglyceride, blood urea nitrogen (BUN), creatinine, and uric acid were measured.
In this example, effects of FCW393 (or compound 16) on animals implanted with primary melanoma cells were investigated, in which the body weight; the size of the tumor; the respective weights of lymph nodes, thymus, and spleen; the respective functions of liver, kidney, and vascular system; as well as the levels of inflammation and/or stress markers were determined. Results are illustrated in FIGS. 8-15.

[2] = test system: metastatic melanoma (B16-F10/Luc cells); test: Metastatic melanoma-bearing C57BL mice; type: in vivo
Experimental: as §1

[3] = test system: PANC-1 cells; test: MTT assay cytotoxicity, PANC-1 cells; type: cell-based, human; settings: 1, 5, 10, 25 and 50 μM for 24 and 48 hours, FIG. 6
Experimental: (§2) The absorbance of the solution at 570 nm was measured by spectrophotometer.
(§3) The cytotoxicity of FCW551 on PANC-1 and LN cells were determined by MTT assay in according to procedures described in the “Materials and Methods” section.

[4] = test system: LN cells; test: MTT assay cytotoxicity, LN cells; type: cell-based, human; settings: 1, 5, 10, 25 and 50 μM for 24 and 48 hours, FIG. 6
Experimental: (§4) The LN cell line was established by orthotopically injected 5×10^5 PANC-1 cells to the pancreas of SCID mice. After one month, mestastasis was found in lymph nodes, cancerous cells were then isolated from lymph nodes. The genomic DNA of the isolated cancer cells from lymph nodes were extracted and sent for genotyping analysis, which confirmed that LN cells were indeed derived from PANC-1 cells (data not shown).
as §2, §3

[5] = test system: PANC-1 cells; test: Migration and invasion analysis, PANC-1 cells; type: cell-based, human; settings: 1 and 20 μM for 24 and 48 hours, FIG. 7
Experimental: (§5) Migration assays were done using a transwell, in which a polycarbonate filter pre-coated with Matrigel (8-μm pores, Millicell; Millipore, Billerica, Mass.) was inserted therein. Cells were serum-starved for 24 h and then seeded (5×10^5 cells per upper chamber) and treated with or without the present compound(s) (concentrations as indicated), and the assays were run for 6 h. Cells that had migrated to the underside of the inserted filter were stained with hematoxylin solution. The cells in the upper side of the inserted membrane were rubbed with a cotton swab. The migrated cells on the underside were pictured in a 200× magnification field and quantified.
(§6) In this example, the ability of the FCW551 in suppressing the migration and/or invasion of pancreatic cancer cells was investigated. Briefly, PANC-1 and LN cells were respectively treated with 1 and 20 μM FCW551 for 24 and 48 hours before subjecting to the migration and invasion analysis. Results are illustrated in FIG. 7.

[6] = test system: LN cells; test: Migration and invasion analysis, LN cells; type: cell-based, human; settings: 1 and 20 μM for 24 and 48 hours, FIG. 7
Description: as §4, §5, §6

| Structure (SMILES) | body weights of the test animals ([1]; 10 mg/Kg, i.p.) | tumor volume as compared with that of the control animal ([1]; 10 mg/Kg, i.p., 3 times per week) | weight of lymph node, thymus, or spleen ([1]; FIG. 9) | counts of white blood cells (WBC), increase ([1]; FIG. 10, panel A) | levels of RBC, PLT, HGB, HCT, MCV, MCH and MCHC ([1]; FIG. 10, panels B to H) | level of analine aminotransferase (ALT) ([1]; FIG. 11) | level of aspartate aminotransferase (AST) ([1]; FIG. 11) | level of inflammation marker (albumin) ([1]; FIG. 11, panel C) | level of the stress marker (uric acid) ([1]; FIG. 11, panel G) | weight of lymph node, thymus, or spleen ([2]; FIG. 13) | levels of WBC, RBC, platelets, HGB, HCT, MCV, MCH, and MCHC ([2]; FIG. 14) | level of inflammation marker or stress marker ([2]; FIG. 15) | growth of tumor (bioluminescence IVIS images) ([2]; days 7 and 14, FIG. 12, panels A and B) | melting point | cytotoxicity [3] | cytotoxicity [4] | invasion ability [5] | migration ability [5] | invasion ability [6] | migration ability [6] |
| --- | --- | --- | --- | --- | --- | --- | --- | --- | --- | --- | --- | --- | --- | --- | --- | --- | --- | --- | --- | --- |
| C[C@H](CCC(=O)OCCOCCOCCN=[N+]=[N-])C1CCC2C3CC[C@@H]4C[C@H](NC(=O)[C@H](CC(=O)O)Nc5ccc([N+](=O)[O-])c6nonc56)CC[C@]4(C)C3CC[C@@]21C (stereo partly drawn) [Compound 16, (3S)-4-(((3R,5R,10S,13R)-17-((R)-5-(2-(2-(2-azidoethoxy)ethoxy)ethoxy)-5-oxopentan-2-yl)-10,13-dimethylhexadecahydro-1H-cyclopenta[a]phenanthren-3-yl)amino)-3-((7-nitrobenzo[c][1,2,5]oxadiazol-4-yl)amino)-4-oxobutanoic acid] | without significantly affecting | about 1/3 | no effects | 2 fold | no effects | did not affect | reduce | no effect | slightly increased | did not affect | nor did it possess any significant effects | did not affect | suppress the growth of tumor | 80 to 81 °C |  |  |  |  |  |  |
| C[C@H](CCC(=O)NCCOCCOCCN=[N+]=[N-])C1CCC2C3CC[C@@H]4C[C@H](NC(=O)[C@H](CC(=O)O)Nc5ccc([N+](=O)[O-])c6nonc56)CC[C@]4(C)C3CC[C@@]21C (stereo partly drawn) [Compound 17, (3S)-4-(((3R,5R,10S,13R)-17-((R)-5-((2-(2-(2-azidoethoxy)ethoxy)ethyl)amino)-5-oxopentan-2-yl)-10,13-dimethylhexadecahydro-1H-cyclopenta[a]phenanthren-3-yl)amino)-3-((7-nitrobenzo[c][1,2,5]oxadiazol-4-yl)amino)-4-oxobutanoic acid] |  |  |  |  |  |  |  |  |  |  |  |  |  | 90 to 91 °C | no significant cytotoxicity | no significant cytotoxicity | greatly suppressed | greatly suppressed | greatly suppressed | greatly suppressed |
